Test results from US6916843B1, “Anti-inflammatory actions of cytochrome P450 expoxygenase-derived eicosanoids” (The United States of America as represented by the …, priority 1999, dated 2005).

Key:
[1] = system: VCAM-1 expression; experiment: Cell-surface enzyme immunoassay of cytokine-induced VCAM-1 expression in endothelial cells; format: cell-based, human; details: 100 nM, 24 hours
[2] = system: RelA; experiment: Cellular localization of RelA in TNF-α-stimulated endothelial cells; format: cell-based; details: co-treatment with TNF-α
Source text: Co-treatment with [11,12]-EET prevented the nuclear accumulation of RelA. Since the nuclear translocation of RelA requires the degradation of its endogenous cytoplasmic inhibitor, inhibitor kappa B (IκB-α), we followed the fate of IκB-α after TNF-α stimulation in the presence or absence of [11,12]-EET. Stimulation of human endothelial cells with TNF-α caused a rapid and almost complete disappearance of IκB-α which was prevented by co-treatment with [11,12]-EET, but not [14,15]-EET.

[3] = system: IκB kinase (IKK); experiment: IKK activity assay with GST-IκB-α substrate, TNF-α-stimulated endothelial cells; format: biochemical, human; details: 100 nM, TNF-α 10 ng/ml, 15 min
Procedure: A set of gel shift assays was performed. […] In some assays, [11,12]-EET (100 nM) was also added directly to the IKK assay (in vitro). As a control for nonspecific phosphorylation, the assay was performed without the addition of immunoprecipitated IKK (no enzyme) or in the presence of a IκB-α mutant (ΔSer 32, Ser 36→Thr) as substrate. The assay was performed three times with similar results.
Specificity of IKB was determined by the complete absence of phosphorylation when the mutated IκB-α substrate, GST-1κB-α (Δ32,36: S→T) which cannot be phosphorylated at serine residues 32 and 36, was substituted for wild-type GST-IκB-α.

[4] = biological target: T1, CYP2J2 (Homo sapiens, UniProt P51589); experiment: Arachidonic acid epoxygenase metabolite formation in CYP2J2-transfected bovine aortic endothelial cells (HPLC)
T1 construct: The CYP2J2 cDNA (1.9 kb) or GFP cDNA (0.75 kb) were subcloned into the plasmid pcDNA3.1; expressed in transfected cells; host or cells: bovine aortic endothelial cells (BAECs), transient transfection with pcDNA3.1/CYP2J2
T1 sequence (P51589 1-502): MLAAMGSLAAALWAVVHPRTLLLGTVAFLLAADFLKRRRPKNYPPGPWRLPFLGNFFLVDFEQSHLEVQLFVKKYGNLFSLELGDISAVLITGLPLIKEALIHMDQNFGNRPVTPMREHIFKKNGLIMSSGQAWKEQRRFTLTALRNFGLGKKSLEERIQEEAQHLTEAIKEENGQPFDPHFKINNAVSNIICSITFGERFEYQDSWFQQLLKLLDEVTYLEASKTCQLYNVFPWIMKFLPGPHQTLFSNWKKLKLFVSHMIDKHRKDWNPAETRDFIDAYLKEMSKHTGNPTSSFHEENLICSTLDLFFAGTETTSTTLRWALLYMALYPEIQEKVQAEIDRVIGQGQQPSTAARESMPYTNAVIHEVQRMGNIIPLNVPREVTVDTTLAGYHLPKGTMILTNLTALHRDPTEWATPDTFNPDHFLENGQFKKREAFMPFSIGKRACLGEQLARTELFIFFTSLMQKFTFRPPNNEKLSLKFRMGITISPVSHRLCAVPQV
Procedure: To study the formation of EETs by CYP2J2 in endothelial cells, we measured EET synthesis from bovine endothelial cells transfected with CYP2J2 cDNA. Early passage bovine aortic endothelial cells were grown to 60-70% confluence and transfected with either pcDNA3.1 or pcDNA3.1/CYP2J2 using Fugene™ 6 reagent (Boehringer Mannheim Corp.) according to the manufacturer's instructions. Using this method, the transfection efficiency was 10-20%. Forty-eight hours post-transfection, cells were washed twice with phosphate-buffered saline and incubated with freshly purified [^3H]arachidonic acid (185 Ci/mmol, 4-5 μCi/175 mm^2 flask) and unlabeled arachidonic acid (10 μM) was added before addition of arachidonic acid. At various time points, the media and cells were removed and extracted with diethyl ether. The combined organic phases were dried under a nitrogen stream, resolved by reverse-phase high performance liquid chromatography (HPLC) and quantified by liquid scintillation as described by Wu et al., 271 J. Biol. Chem. 3460 (1996). […]
These control GFP-transfected cells metabolized radiolabeled arachidonic acid to epoxygenase metabolites (EETs and DHETs) at a rate of ˜8 pmol/min/10^7 cells (FIG. 6). Endothelial cell arachidonic acid metabolism was determined as follows: Forty-eight hours after transfection with either pcDNA3.1/GFP or pcDNA3.1/CYP2J2, BAECs were incubated with freshly purified [5, 6, 8, 9, 11, 12, 14, 15-^3H]arachidonic acid (185 Ci/mmol, 4-5 μCi/175-mm^2 flask) in serurm-free culture medium at 37° C. for 30-120 min. […] The BAECs and culture medium were then collected and the reaction products extracted into ethyl ether, dried under a nitrogen stream, analyzed by reverse-phase HPLC, and quantified by on-line liquid scintillation using a Radiomatic Flo-One β detector (Radiomatic Instruments, Tampa, Fla.) as described (Wu et al., 271 J. Biol. Chem. 12551 (1996), Node et al., 285 Science 1276-1279 (1999)). […]

Row | Compound | inhibition of IL-1α-induced VCAM-1 expression ([1]; IL-1α) | inhibition of LPS-induced VCAM-1 expression ([1]; LPS 10 ng/ml) | effect on TNF-α-induced nuclear accumulation of RelA [2] | inhibition of TNF-α-induced IKK activity [3] | rate of formation of epoxygenase metabolites (EETs and DHETs) [4]
1 | CCCCC/C=C\C[C@H]1O[C@H]1C/C=C\C/C=C\CCCC(=O)O [[11,12]-EET] | inhibited | inhibited | prevented | > 90% | –
2 | CYP2J2: CYP2J2 cDNA (1.9 kb) subcloned into plasmid pcDNA3.1, transfected into endothelial cells | – | – | – | – | 17.8±2.3 pmol/minute/10^7 cells
